Source: patent publication US20170354639A1, “DITERPENOID DERIVATIVES AND METHODS OF USE THEREOF” (Biogen MA Inc., priority 2014, published 2017)

Molecular target: Nrf2-Keap1 (Homo sapiens, UniProt Q14145)
Assay: DiscoveRx PathHunter Nrf2-Keap1 nuclear translocation functional assay (agonist format)
Type: cell-based
Conditions: in duplicate, agonist mode; for EC50: 10 concentrations, 3-fold serial dilutions, 30 μM top concentration, normalized to CDDO methyl ester and vehicle; for activation at 10 µM: 6 h; for activation at 10 µM / % Activation @ 10 μM: single concentration of 10 μM, normalized to control ligand (CDDO methyl ester) and vehicle; for % Activation @ 10 μM: 6 hours
Method: DiscoveRx PathHunter® Nrf2-Keap1 Functional Assay
DiscoveRx's Nrf2-Keapl translocation assay was used to profile compounds. Primary Screening was performed in duplicate at a single concentration of 10 μM and EC50 determinations were performed in duplicate at 10 concentrations with 3-fold serial dilutions at a 30 μM top concentration or an otherwise specified top concentration.
The PathHunter® Nuclear Translocation assay detects translocation of a target protein to, or from, the nucleus. In this system, Prolink™ (PK), a small enzyme fragment, is fused to the protein of interest and Enzyme Acceptor (EA) is localized in the nucleus. Activation of the signaling pathway induces the target protein to either transit into the nucleus, thus forcing complementation of the PK and EA fragments, or out of the nucleus, hindering complementation of the fragments.
Cell handling: PathHunter Pathway cell lines were expanded from freezer stocks according to standard procedures. 5000 cells were seeded in Cell Plating Reagent 0 (containing 1% FBS) to a total volume of 20 μL into white walled, 384-well microplates and incubated for the overnight prior to testing.
Agonist format: For Agonist determination, cells were incubated with sample to induce response. Dilution of sample stocks was performed to generate 100× sample in DMSO. Intermediate dilution of sample stocks was performed to generate 5× sample in assay buffer (Cell Plating Reagent 0 containing 1% FBS). 5 μL of 5× sample was added to cells and incubated at room temperature for 6 hours. Vehicle concentration was 1%.
Signal detection: Assay signal was generated through a single addition of 25 μL (100% v/v) of PathHunter Flash Detection reagent, followed by a one hour incubation at room temperature. Microplates were read following signal generation with a PerkinElmer Envision™ instrument for chemiluminescent signal detection.
Data analysis: Compound activity was analyzed using CBIS data analysis suite (ChemInnovation, CA). For agonist mode assays, percentage activity was calculated using the following formula: % Activity=100%×(mean RLU of test sample−mean RLU of vehicle control)/(mean MAX RLU control ligand−mean RLU of vehicle control). For EC50 determination, a control agonist dose response curve was generated in the Keap 1-Nrf2 biosensor assay, data was normalized to the maximal and minimal response observed in the presence of the control ligand and vehicle respectively. CDDO methyl ester was used as a control compound. Compounds were tested in the agonist mode of the assay and data was normalized to the maximal and minimal response observed in the presence of control ligand and vehicle.

Sequence of Nrf2-Keap1 (Q14145 whole entry): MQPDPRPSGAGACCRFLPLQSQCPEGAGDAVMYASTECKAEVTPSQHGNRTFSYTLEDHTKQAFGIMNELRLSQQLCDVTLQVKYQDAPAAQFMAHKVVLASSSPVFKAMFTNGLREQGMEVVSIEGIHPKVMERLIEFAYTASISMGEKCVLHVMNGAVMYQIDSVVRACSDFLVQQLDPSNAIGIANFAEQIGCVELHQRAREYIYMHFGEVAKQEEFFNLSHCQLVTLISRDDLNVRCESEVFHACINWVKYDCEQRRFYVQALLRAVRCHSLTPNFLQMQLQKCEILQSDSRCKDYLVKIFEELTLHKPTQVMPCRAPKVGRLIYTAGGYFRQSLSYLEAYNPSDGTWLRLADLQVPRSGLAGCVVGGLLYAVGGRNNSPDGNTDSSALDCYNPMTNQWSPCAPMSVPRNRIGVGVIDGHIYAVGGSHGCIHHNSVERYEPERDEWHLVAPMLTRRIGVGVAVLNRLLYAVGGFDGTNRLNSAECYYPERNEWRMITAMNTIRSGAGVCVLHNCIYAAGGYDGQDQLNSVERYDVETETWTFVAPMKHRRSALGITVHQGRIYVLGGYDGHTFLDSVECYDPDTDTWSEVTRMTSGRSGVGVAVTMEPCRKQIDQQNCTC

Compound | EC50 [µM] | activation at 10 µM [%] | % Activation @ 10 μM
CC(=O)N[C@@H]1COC(=O)/C1=C/CC[C@H]1C2(CC[C@H]3C(C)(C)CCC[C@@]31C)CC2 [Example 35, N-((S,E)-5-oxo-4-(3-((1′S,4a′S,8a′S)-5′,5′,8a′-trimethyloctahydro-1′H-spiro[cyclopropane-1,2′-naphthalen]-1′-yl)propylidene)tetrahydrofuran-3-yl)acetamide] | > 2 | 51 to 100 | –
C=C1CC[C@@H]2[C@]3(C)COCO[C@@H]3CC[C@@]2(C)[C@@H]1C/C=C1/C(=O)OCC1NC=O (single isomer, unassigned) [Example 39B] | – | – | B (B: 51 to 100%)
C=C1CC[C@@H]2[C@]3(C)COCO[C@@H]3CC[C@@]2(C)[C@@H]1C/C=C1/C(=O)OCC1NC=O (single isomer, unassigned) [Example 39A] | 0.5 to 2 | – | A (A: >100%)
C=C1CC[C@@H]2[C@]3(C)COS(=O)O[C@@H]3CC[C@@]2(C)[C@@H]1C/C=C1/C(=O)OC[C@@H]1NC=O (stereo partly drawn) [Example 21, N-((3R,E)-4-(2-((4aR,6aS,7R,10aS,10bR)-6a,10b-dimethyl-8-methylene-3-oxidodecahydro-1H-naphtho[2,1-d][1,3,2]dioxathiin-7-yl)ethylidene)-5-oxotetrahydrofuran-3-yl)formamide] | > 2 | 51 to 100 | –
CC1(C)CCC[C@@]2(C)[C@H]1CCC1(CC1)[C@@H]2CC/C=C1/C(=O)OC[C@H]1NC=O [Example 33, N-((S,E)-5-oxo-4-(3-((1′S,4a′S,8a′S)-5′,5′,8a′-trimethyloctahydro-1′H-spiro[cyclopropane-1,2′-naphthalen]-1′-yl)propylidene)tetrahydrofuran-3-yl)formamide] | – | 30 to 50 | –
C=C1CC[C@@H]2[C@@H](C)[C@](C)(O)CC[C@@]2(C)[C@@H]1C/C=C1/C(=O)OC[C@H]1O [Example 4, (S,E)-4-hydroxy-3-(2-((1R,4aR,5R,6R,8aR)-6-hydroxy-5,6,8a-trimethyl-2-methylenedecahydronaphthalen-1-yl)ethylidene)dihydrofuran-2(3H)-one] | < 0.5 | > 100 | –
C=C1CC[C@@H]2[C@@H](C)[C@@](O)(C(F)(F)F)CC[C@@]2(C)[C@@H]1C/C=C1/C(=O)OCC1NC=O (single isomer, unassigned) [Example 43A] | 0.5 to 2 | – | –
CC1(C)CCC[C@@]2(C)[C@H]1CCC1(CC1)[C@@H]2CC/C=C1/C(=O)OC[C@H]1NS(C)(=O)=O [Example 37, N—((S,E)-5-oxo-4-(3-((1′S,4a′S,8a′S)-5′,5′,8a′-trimethyloctahydro-1′H-spiro[cyclopropane-1,2′-naphthalen]-1′-yl)propylidene)tetrahydrofuran-3-yl)methanesulfonamide] | – | 30 to 50 | –
CC1(C)CCC[C@@]2(C)[C@H]1CCC1(CC1)[C@@H]2CC/C=C1/C(=O)OCC1O (stereo partly drawn) [Example 32, (E)-4-hydroxy-3-(3-((1′S,4a′S,8a′S)-5′,5′,8a′-trimethyloctahydro-1′H-spiro[cyclopropane-1,2′-naphthalen]-1′-yl)propylidene)dihydrofuran-2(3H)-one] | – | 30 to 50 | –
CC1=CC[C@@H]2[C@@H](C)[C@H](O)CC[C@@]2(C)[C@@H]1C/C=C1/C(=O)OC[C@H]1O [Example 3, (S,E)-4-hydroxy-3-(2-((1R,4aR,5R,6R,8aR)-6-hydroxy-2,5,8a-trimethyl-1,4,4a,5,6,7,8,8a-octahydronaphthalen-1-yl)ethylidene)dihydrofuran-2(3H)-one] | < 0.5 | > 100 | –
C=C1CC[C@@H]2[C@@H](C)[C@@](O)(C(F)(F)F)CC[C@@]2(C)[C@@H]1C/C=C1/C(=O)OC[C@H]1O [Example 42B, (S,E)-4-hydroxy-3-(2-((1R,4aR,5R,6R,8aR)-6-hydroxy-5,8a-dimethyl-2-methylene-6-(trifluoromethyl)decahydronaphthalen-1-yl)ethylidene)dihydrofuran-2(3H)-one] | < 0.5 | – | –
C=C1CC[C@H]2[C@@](C)(CC[C@](C)(O)[C@@]2(C)CO)[C@@H]1C/C=C1/C(=O)OC[C@H]1O [Example 6, (S,E)-4-hydroxy-3-(2-((1R,4aS,5R,6S,8a5)-6-hydroxy-5-(hydroxymethyl)-5,6,8a-trimethyl-2-methylenedecahydronaphthalen-1-yl)ethylidene)dihydrofuran-2(3H)-one] | – | 51 to 100 | –
C=C1CC[C@@H]2[C@@H](C)[C@](O)(C(F)(F)F)CC[C@@]2(C)[C@@H]1C/C=C1/C(=O)OCC1NC=O (single isomer, unassigned) [Example 44B] | 0.5 to 2 | – | –
